From patent publication US20070116687A1, “Method of modulating cellular transmigration and agents for use therein” (Medvet Science PTY, Ltd., priority 2003, published 2007)
Entries after “also recorded” stand apart in the source; their conditions may differ.

Legend:
[1] = tested on: endothelial ERK (HUVEC); settings: Xia et al. 1998; cited from earlier work
[2] = tested on: endothelial ERK (HUVEC); test: ERK activation assay (Western blot with phospho-ERK Ab); format: cell-based, human; settings: for endothelial ERK activation by direct treatment of endothelial monolayer: HUVEC treated 15 min, no neutrophils, anti-phospho-ERK Western blot
Description: A, Endothelial cells treated with 0.4 ng/ml TNFα (TNF), 30 ng/ml interleukin-4 (IL-4), 20 ng/ml oncostatin-M (OsM), 100 ng/ml PMA, or medium alone (Nil) for 15 minutes were assayed for Erk activation. Western blots shown were carried out using an anti-phospho-Erk Ab to detect activated Erk. Equal amounts of protein were loaded onto each lane. B, HUVEC were activated with TNFα for 4 hours or left unstimulated. After washing, either medium containing IL-8 (−) or neutrophils pre-treated with 1 nM IL-8 (+) were added at a 10:1 ratio of neutrophils to HUVEC and Erk activation assayed after 15 min at 37° C. Western blots shown were carried out using antibodies to phospho-Erk (upper panel) or reprobed with an anti-Erk polyclonal antibody after membranes were stripped (lower panel).
A, Neutrophils, untreated or incubated with a β2 integrin functional blocking antibody, TS1/18 (50 μg/ml), for 20 min at room temperature were added to HUVEC in the presence of 1 nM fMLP for 15 min. HUVEC monolayers were then analysed for Erk activation by Western blotting with an anti-phospho-Erk Ab. B, Neutrophils, untreated or treated with the TS1/18 Ab as in A, were added to 96-well tissue culture dishes in the presence or absence of 1 nM fMLP and neutrophil adhesion was determined. The data is presented as the percentage of neutrophil remaining adherent relative to that added (% adhesion). By ANOVA comparing +/−TS1/18, p=0.0002, n=3.
Resting HUVEC monolayers incubated with medium (nil), neutrophils (N) or neutrophil conditioned medium (CM), were analysed for Erk activation by Western blotting with an anti-phospho-Erk Ab. A, Neutrophils were stimulated for 15 minutes with 1 nM fMLP and then divided into two aliquots. One aliquot was centrifuged and the top 2/3 taken, carefully avoiding the cellular pellet, and added as conditioned medium (CM). The other aliquot was resuspended and 2/3 taken and added as the equivalent amount of neutrophil preparation (N). B. Conditioned media from neutrophils treated with 1 or 100 nM fMLP (prepared as in A) were added to HUVEC either undiluted (neat) or after diluting 1 in 3 (1/3) in medium. […]
HUVEC (10^6 cells/well) were seeded in 6-well tissue culture dishes. […] Protein concentration was determined using the Bradford reagent (BioRad) and equal amounts of protein loaded onto a 7.5% SDS polyacrylamide gel. […] Total ERK present was determined by stripping the filter and re-blotting with an antibody against ERK 1/2.
We therefore investigated whether ERK activation in the endothelium may be occurring under the conditions of the transmigration assay and which parameter(s) present in the assay system were responsible for its activation. Initially, the role of the inducers, TNFα and fMLP, used in the transmigration assay were assessed. […]

[3] = tested on: neutrophil adhesion to TNFα-activated endothelium; test: Neutrophil adhesion assay on HUVEC monolayer; format: cell-based, human
Description: (§1) A, Chemotaxis assay using neutrophils pretreated for 20 min at room temperature with 30 μM PD98059 or DMSO. Chemotaxis was stimulated by the presence of 10 nM fMLP, or 1 nM IL-8 in the lower chamber; medium alone served as a control (nil). The data represent one of three experiments, each performed in triplicate. ANOVA looking for an effect of PD98059 compared to DMSO on chemotaxis gave p=0.359. B, Confluent HUVEC monolayers were stimulated with TNFα for 4 h, with PD98059 or DMSO added in the final 30 min. The extent of neutrophil adhesion to the endothelium was determined using a standard adhesion assay. The data is presented as the percentage of neutrophil remaining adherent relative to that added (% adhesion). The results represent one of three experiments, each performed in triplicate. (p=0.238, t-test comparing DMSO+TNF with PD+TNF).
Adhesion assays were performed as previously described (Gamble, J. R., Y. Khew-Goodall, and M. A. Vadas. 1993. J Immunol. 150:4494-4503) with the exception that neutrophils were used. […] After washing the cells were stained with Rose Bengal and total numbers of adherent neutrophils determined by densitometry. The number of adherent neutrophils was computed from a standard curve and expressed as a percentage of the neutrophils added. […]

[4] = tested on: neutrophil transmigration across a confluent monolayer of cultured human umbilical vein endothelial cells (HUVEC); test: Neutrophil transmigration assay across HUVEC monolayer on Transwells; format: cell-based
Description: FIG. 1 is a graphical representation of inhibitors that act on MEK inhibit neutrophil transmigration across endothelium. A, Confluent HUVEC monolayers plated (5×10^4 cells/well) on Transwells were either unstimulated or activated with TNFα (4 ng/ml) for 4 hours. Thirty min prior to the assay some monolayers were treated with PD98059 (45 μM) or DMSO control. Neutrophils (5×10^5 cells/well) were added with either PD98059 or DMSO. Transmigration was assayed across TNFα-activated endothelium (TNF) and unstimulated endothelium with (fMLP) or without (Nil) a gradient of 10 nM fMLP. The assays were carried out in triplicate and 1 representative of 5 experiments shown. An ANOVA was performed looking for an effect of PD98059 compared to DMSO on transmigration: in this experiment p<0.0001 and in the overall series p<0.0001. B, Endothelial monolayers were treated as in A, but the concentration of PD98059 was varied as indicated. The data are presented as percentage of transmigration relative to that across unstimulated endothelium. One representative experiment of 7, each performed in triplicate, is shown. […] C, Endothelial cells on Transwells were left unstimulated or activated with TNFα as in A. Using the standard protocol, U0126 or its solvent, DMSO, were added to the monolayers 30 min prior to the experiment, and then added with the neutrophils. The results from one of two experiments, each performed in triplicate, is shown.
This was performed as previously described using Transwells (6.5 mm diameter, […] pore size, Costar, Cambridge, Mass.) on 24 well culture trays (Smith et al., 1991, supra). Briefly, 5×10^4 HUVEC (between passages 2 and 5) were seeded in the upper chamber of each Transwell pre-coated with fibronectin (50 μg/mL for 30 minutes) and the cells were grown at 37° C. in 5% CO2 supplemented air to form a confluent monolayer. Neutrophils were added at 5×10^5 cells/well to the top chamber and where indicated chemoattractant was added to the lower chamber. The neutrophils were incubated at 37° C. for 1 h after which the number that had transmigrated into the lower chamber were collected and counted. Transmigration is expressed as a percentage of neutrophils added.
Neutrophils were counted using one of two methods. Neutrophils retrieved from the lower compartment were either counted directly using a Coulter counter (Model ZF, Coulter, Herts, UK) or using an indirect colourimetric assay based on the conversion of a tetrazolium salt (MTT) to a formazan. Briefly, MTT (0.2 mg/ml, Sigma, St. Louis, […].) was added to the lower chamber and incubated for 4 hours at 37° C. The neutrophils were pelleted by centrifugation, the pellets resuspended in 200 μl acid isopropanol for an hour and the absorbance at 550 nm determined. A standard curve was constructed by serial dilution of the neutrophil preparation and the percentage of neutrophils transmigrating was calculated from this. The two methods used produced results of good fit (least squares fit regression analysis, >95% confidence) (data not shown).
To identify signalling pathways in the endothelium that are essential for neutrophil transmigration, a screen for their effects on transmigration was carried out using pharmacological inhibitors of various signalling pathways (data not shown). The studies were performed using an in vitro model of neutrophil transmigration across a confluent monolayer of cultured human umbilical vein endothelial cells (HUVEC). Transmigration induced by an exogeneously added chemoattractant gradient and across TNFα-activated endothelium were both examined. […] In general, transmigration across TNFα-activated endothelium was inhibited to a greater extent than transmigration across a gradient of fMLP, with 70-80% inhibition of transmigration across TNFα-activated endothelium compared to only 40-50% inhibition of transmigration across an fMLP gradient. The inhibitory effects of PD98059 were also confirmed using a second MEK inhibitor, U0126 (FIG. 1C).

[5] = tested on: neutrophil chemotaxis; test: Neutrophil chemotaxis assay (Transwells, no HUVEC monolayer); format: cell-based, human; settings: 30 μM PD98059 vs DMSO
Description: as §1
Chemotaxis assays were performed using Transwells essentially as in the transmigration assay except that the HUVEC monolayer was omitted. In addition, instead of pre-coating the upper chamber with fibronectin, the lower chamber was pre-coated with gelatin to prevent adhesion of neutrophils. […] Neutrophils that had migrated through the filters after 1 hour incubation at 37° C. were counted. Counts are expressed as a percentage of the total number of cells added. […]

TNFα
fold activation of ERK (earlier observations) [1]: 1.5-2.0 fold
endothelial ERK activation by direct treatment of endothelial monolayer [2]: marginally activated ERK
neutrophil adhesion to endothelium after treatment of the endothelium ([3]; TNFα treatment of HUVEC, 4 h): stimulated neutrophil adhesion

CSCC[C@H](NC=O)C(=O)N[C@@H](CC(C)C)C(=O)N[C@@H](Cc1ccccc1)C(=O)O [fMLP, N-formyl-methionyl-leucinyl-phenylalanine]
endothelial ERK activation by direct treatment of endothelial monolayer [2]: did not activate endothelial ERK; also recorded: had no effect on endothelial ERK activation
induction of the ERK-activating factor in neutrophils ([2]; conditioned media of stimulated neutrophils added to HUVEC, phospho-ERK read-out): induced the ERK-activating factor

N#CC(=C(/N)Sc1ccccc1N)/C(C#N)=C(\N)Sc1ccccc1N [U0126]
effect on neutrophil transmigration across TNFα-activated endothelium ([4]; TNFα-activated HUVEC): inhibited transmigration across TNFα-activated endothelium to a similar extent as PD 98059
effect on neutrophil transmigration induced by a chemoattractant (fMLP) gradient ([4]; unstimulated HUVEC): showed greater potency against fMLP-driven transmigration

COc1cccc(-c2cc(=O)c3ccccc3o2)c1N [PD98059]
neutrophil adhesion to TNFα-activated endothelium in presence of inhibitor ([3]; HUVEC stimulated with TNFα 4 h, inhibitor in final 30 min): not significantly affected
IL-8-stimulated neutrophil chemotaxis ([5]; 1 nM IL-8 in lower chamber): not significantly affected
fMLP-stimulated neutrophil chemotaxis ([5]; 10 nM fMLP in lower chamber): not significantly affected
effect on neutrophil transmigration across TNFα-activated endothelium ([4]; TNFα-activated HUVEC): inhibit in a dose-dependent manner
inhibition of transmigration across TNFα-activated endothelium ([4]; TNFα-activated HUVEC, inhibitor added 30 min before and with neutrophils, 1 h): 70-80%
effect on neutrophil transmigration induced by a chemoattractant (fMLP) gradient ([4]; unstimulated HUVEC): inhibit in a dose-dependent manner
inhibition of transmigration across an fMLP gradient ([4]; unstimulated HUVEC, fMLP gradient (10 nM), 1 h): 40-50%

B1: IL-4: interleukin-4 (protein, UniProt P05112 25-153, looked up)
Interleukin-4: HKCDITLQEIIKTLNSLTEQKTLCTELTVTDIFAASKNTTEKETFCRAATVLRQFYSHHEKDTRCLGATAQQFHRHKQLIRFLKRLDRNLWGLAGLNSCPVKEANQSTLENFLERLKTIMREKYSKCSS
endothelial ERK activation by direct treatment of endothelial monolayer [2]: marginally activated ERK
